In the supplement of paper PMC11208160:

Test: recombinant barcode read abundance after kanamycin selection (control-corrected) (log10(CPM+1)); higher = more efficient recombination; sequences stand for … in AGTGCAGAGAAAATCGGCCAGTTTTCTCTGCCTGCAGTCCGCATGCCGT…AGATTTATGCAGCGGACTGCCTTTCTCCCAAAGTGATAAACCGGACAGTATCATGGACCGGTTTTCCCGGTAATCCGTATTTGCAAGGTTGGTTTCACT; site = the 11-nt target
Outline: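 IS621 bridge RNA target-binding loops were paired with targets in a pooled library tested in E. coli. After co-electroporation with a donor plasmid, cells were plated in two replicates on chloramphenicol/ampicillin LB agar (control) and on chloramphenicol/ampicillin/kanamycin carrying 0.1 mM IPTG. Barcodes at recombinant junctions were counted as counts per million, averaged and control-corrected to give recombination efficiency. Values are log10(CPM+1).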
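Note: IS621 recombinase and bridge RNA in Escherichia coli cells.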

Sequence | recombinant barcode read abundance (log10)
GGTGAGGCTTGGGTTCTAACCTGTTGCAT (site GGTGAGGCTAT) | 2.31
GGTGAGGCTTGGGTTCTAACCTGTTGCAT (site TAACCTACTTA) | 0.214
GGTGCATCTTGGGTTCTAACCTGTTGCTT (site ATATGTCCTTT) | 0.0325
GGTGCATCTTGGGTTCTAACCTGTTGCTT (site GGTGCATCTAA) | 0.0847
GGTGCGTCTTGGGTTCTAACCTGTTGCCT (site AGTGCGTCTAG) | 0.246
GGTGCGTCTTGGGTTCTAACCTGTTGCCT (site CGTGCGTCTAG) | 0.132
GGTGCGTCTTGGGTTCTAACCTGTTGCCT (site GGTGCGTCTAG) | 1.57
GGTGCGTCTTGGGTTCTAACCTGTTGCCT (site TGTGCGTCTAG) | 0.119
GGTGCTCCTTGGGTTCTAACCTGTTGCAC (site GGTGCTCCTAT) | 0.085
GGTGCTCCTTGGGTTCTAACCTGTTGCAC (site GGTGCTCCTCT) | 0.04
GGTGCTCCTTGGGTTCTAACCTGTTGCAC (site GGTGCTCCTGT) | 0.684
GGTGCTCCTTGGGTTCTAACCTGTTGCAC (site GGTGCTCCTTT) | 0.216
GGTGGCCCTTGGGTTCTAACCTGTTGCCT (site GATGGCCCTAG) | 0.108
GGTGGCCCTTGGGTTCTAACCTGTTGCCT (site GCTGGCCCTAG) | 0.22
GGTGGCCCTTGGGTTCTAACCTGTTGCCT (site GGTGGCCCTAG) | 1.08
GGTGGCCCTTGGGTTCTAACCTGTTGCCT (site GTTGGCCCTAG) | 0.296
GGTGGGGCTTGGGTTCTAACCTGTTGCTG (site GGTGGGGCTCA) | 2.24
GGTGGGGCTTGGGTTCTAACCTGTTGCTG (site GGTTGAGCTCA) | 0.536
GGTGGTCCTTGGGTTCTAACCTGTTGCCT (site GGTGGTCCTAG) | 1.36
GGTGGTCCTTGGGTTCTAACCTGTTGCCT (site GGTTGTCCTAG) | 0.178
GGTTACCCTTGGGTTCTAACCTGTTGCGG (site GGTAACCCTCC) | 0.716
GGTTACCCTTGGGTTCTAACCTGTTGCGG (site GGTCACCCTCC) | 1.62

Sequence | recombinant barcode read abundance (log10)
GGTTACCCTTGGGTTCTAACCTGTTGCGG (site GGTGACCCTCC) | 0.115
GGTTACCCTTGGGTTCTAACCTGTTGCGG (site GGTTACCCTCC) | 2.08
GGTTAGTCTTGGGTTCTAACCTGTTGCCG (site ACGGCTACTAA) | 0.147
GGTTAGTCTTGGGTTCTAACCTGTTGCCG (site GGTTAGTCTCG) | 0.363
GGTTGAGCTTGGGTTCTAACCTGTTGCTG (site GGTGGGGCTCA) | 0.0323
GGTTGAGCTTGGGTTCTAACCTGTTGCTG (site GGTTGAGCTCA) | 0.642
GGTTGGCCTTGGGTTCTAACCTGTTGCGG (site GGTTGACCTCC) | 0.257
GGTTGGCCTTGGGTTCTAACCTGTTGCGG (site GGTTGCCCTCC) | 0.0622
GGTTGGCCTTGGGTTCTAACCTGTTGCGG (site GGTTGGCCTCC) | 0.624
GGTTGGCCTTGGGTTCTAACCTGTTGCGG (site GGTTGTCCTCC) | 0.15
GGTTGGGCTTGGGTTCTAACCTGTTGCAG (site GGCTGGGCTCG) | 0.0851
GGTTGGGCTTGGGTTCTAACCTGTTGCAG (site GGTTGGGCTCT) | 1.46
GTAACCTCTTGGGTTCTAACCTGTTGCCT (site GTAACCTCTAG) | 1.92
GTAACCTCTTGGGTTCTAACCTGTTGCCT (site GTAACCTCTCG) | 1.15
GTAACCTCTTGGGTTCTAACCTGTTGCCT (site GTAACCTCTGG) | 0.0952
GTAACCTCTTGGGTTCTAACCTGTTGCCT (site GTAACCTCTTG) | 0.0654
GTAAGAACTTGGGTTCTAACCTGTTGCAG (site GTAAGAACTCT) | 1.78
GTAAGAACTTGGGTTCTAACCTGTTGCAG (site GTAAGTCCTCT) | 0.544
GTAAGGACTTGGGTTCTAACCTGTTGCGG (site CAGTCAGCTAG) | 0.115
GTAAGGACTTGGGTTCTAACCTGTTGCGG (site GTAAGGACTCC) | 2.25
GTAAGTTCTTGGGTTCTAACCTGTTGCCT (site GAAAGTTCTAG) | 0.049
GTAAGTTCTTGGGTTCTAACCTGTTGCCT (site GCAAGTTCTAG) | 0.258

Sequence | recombinant barcode read abundance (log10)
GTAAGTTCTTGGGTTCTAACCTGTTGCCT (site GGAAGTTCTAG) | 0.0929
GTAAGTTCTTGGGTTCTAACCTGTTGCCT (site GTAAGTTCTAG) | 1.11
GTAATAGCTTGGGTTCTAACCTGTTGCAT (site ATAATAGCTAT) | 0.695
GTAATAGCTTGGGTTCTAACCTGTTGCAT (site GTAATAGCTAT) | 2
GTAATCCCTTGGGTTCTAACCTGTTGCCG (site GTAATCCCTCG) | 1.76
GTAATCCCTTGGGTTCTAACCTGTTGCCG (site GTAATCCCTTG) | 0.572
GTAATTGCTTGGGTTCTAACCTGTTGCCT (site GTAAATGCTAG) | 0.184
GTAATTGCTTGGGTTCTAACCTGTTGCCT (site GTAACTGCTAG) | 0.519
GTAATTGCTTGGGTTCTAACCTGTTGCCT (site GTAAGTGCTAG) | 0.0962
GTAATTGCTTGGGTTCTAACCTGTTGCCT (site GTAATTGCTAG) | 0.918
GTACAATCTTGGGTTCTAACCTGTTGCAG (site CATAGTCCTTG) | 0
GTACAATCTTGGGTTCTAACCTGTTGCAG (site GTACAATCTCT) | 0.632
GTACGACCTTGGGTTCTAACCTGTTGCAC (site AACAAGACTAG) | 0.189
GTACGACCTTGGGTTCTAACCTGTTGCAC (site GTACGACCTGT) | 1.91
GTACGTACTTGGGTTCTAACCTGTTGCCT (site ATACGTACTAG) | 0.0704
GTACGTACTTGGGTTCTAACCTGTTGCCT (site CTACGTACTAG) | 0.283
GTACGTACTTGGGTTCTAACCTGTTGCCT (site GTACGTACTAG) | 0.586
GTACGTACTTGGGTTCTAACCTGTTGCCT (site TTACGTACTAG) | 0.777
GTACGTCCTTGGGTTCTAACCTGTTGCGT (site GTACGTCCTAA) | 0.0527
GTACGTCCTTGGGTTCTAACCTGTTGCGT (site GTACGTCCTAC) | 2.36
GTACGTCCTTGGGTTCTAACCTGTTGCGT (site GTACGTCCTAG) | 0.0549
GTACGTCCTTGGGTTCTAACCTGTTGCGT (site GTACGTCCTAT) | 0.764

Sequence | recombinant barcode read abundance (log10)
GTAGACCCTTGGGTTCTAACCTGTTGCCG (site GTAGACCCTCG) | 2.32
GTAGACCCTTGGGTTCTAACCTGTTGCCG (site GTTGACCCTAG) | 0.476
GTATCCGCTTGGGTTCTAACCTGTTGCCA (site CGGCTGCCTCC) | 0.0649
GTATCCGCTTGGGTTCTAACCTGTTGCCA (site GTATCCGCTTG) | 1.55
GTATGAGCTTGGGTTCTAACCTGTTGCCA (site GTATGAGCTTG) | 0.906
GTATGAGCTTGGGTTCTAACCTGTTGCCA (site TTATAAGCTTG) | 0.0331
GTATGAGCTTGGGTTCTAACCTGTTGCGG (site GTATGAGCTCC) | 2.06
GTATGAGCTTGGGTTCTAACCTGTTGCGG (site GTATGTGCTCC) | 0.255
GTATGCTCTTGGGTTCTAACCTGTTGCGT (site GTATCCTCTAT) | 0.11
GTATGCTCTTGGGTTCTAACCTGTTGCGT (site GTATGCTCTAC) | 1.17
GTCAACCCTTGGGTTCTAACCTGTTGCGG (site GTAAACCCTCC) | 0.886
GTCAACCCTTGGGTTCTAACCTGTTGCGG (site GTCAACCCTCC) | 2.33
GTCAAGACTTGGGTTCTAACCTGTTGCCG (site GTCAAGACTCG) | 1.94
GTCAAGACTTGGGTTCTAACCTGTTGCCG (site GTCAAGACTTG) | 0.462
GTCAAGCCTTGGGTTCTAACCTGTTGCTA (site GCCAAACCTTA) | 0.345
GTCAAGCCTTGGGTTCTAACCTGTTGCTA (site GTCAAGCCTTA) | 0.705
GTCACGCCTTGGGTTCTAACCTGTTGCAT (site GACACACCTAT) | 0.0978
GTCACGCCTTGGGTTCTAACCTGTTGCAT (site GTCACGCCTAT) | 0.588
GTCACTACTTGGGTTCTAACCTGTTGCCG (site GTCACTACTCG) | 0.74
GTCACTACTTGGGTTCTAACCTGTTGCCG (site GTCCCTACTCG) | 0.0387
